{"source": "patent US10287298B2", "about": "“Nitrogen-containing analogs of salinomycin, synthesis and use against cancer stem cells and malaria” (Centre National de la Recherche Scientifique (CNRS), priority 2014, dated 2019)", "key": {"[1]": {"tested_on": "HMLER CD24+ cells", "test": "Cell viability assay (CellTiter-Blue), IC50 assessment", "assay_type": "cell-based", "settings": "Homo sapiens, read-out: IC50 CD24+", "method": "(§1) FIG. 1 represents viability of HMLER CD24− cells (full line) and HMLER CD24+ cells (dotted line) at different concentration of salinomycine (1A), AM5 […] or AM13 (1D).\n(§2) Cell viability assay was carried out by plating 1000 cells per well in 96-well plates. NAC (2 mM, A9165 Sigma) or DFO (1 mM) were pretreated 2 hours prior to the compound treatment. CellTiter-Blue® Reagent (Promega; G3582) (20 μl/well) was added after 24, 48, or 72 hours treatment and cells were incubated for 1 hour before recording fluorescence (560(20)Ex/590(10)Em) using a Perkin Elmer Wallac 1420 Victor2 Microplate Reader."}, "[2]": {"tested_on": "HMLER CD24low cells", "test": "Reactive Oxygen Species (ROS) levels by flow cytometry (CM-H2DCF-DA)", "assay_type": "cell-based, Human", "settings": "30 nM, 500 nM or 1 μM, 48 h", "method": "Reactive Oxygen Species (ROS) levels were measured by flow cytometry or by confocal scanning immunofluorescence microscopy using CM-H2DCF-DA (C6827, invitrogen). Briefly, U2OS and HMLER CD24low cells were treated as indicated in FIG. 11 (30 nM, 500 nM or 1 μM of salinomycine, AM5 or AM23 or untreated during 48 h). Then, these cells were trypsined and incubated with 5 μM CM-H2DCF-DA at 37° C. for 40 min, washed once with PBS and were counterstained with DAPI (0.5 μg/ml) to exclude non-viable cells. The mean fluorescence intensity was determined as ROS production by flow cytometry with LSRFortessa™ cytometer (BD Bioscience, San Jose, Calif.). For immunofluorescence microscopy analysis, cells were seeded on coverslips and were treated with salinomycine derivatives (injection in culture medium then treatment during 24 h, 48 h and 72 h). LysoTracker® Red DND-99 (L-7528, Life technologies) was used to visualize lysosomes. Then, cells were fixed with 4% PFA/PBS. DAPI was used to visualize nuclear DNA. Cell images were obtained using a Deltavision real-time microscope (Applied Precision) or an ApoTome.2 microscope (Zeiss). ImageJ was used for further image processing.\nFACS analysis of ROS in cells treated for 48 h is represented in FIG. 17."}, "[3]": {"tested_on": "HMLER CD24− cells", "test": "Cell proliferation and formation of mammospheres", "assay_type": "cell-based, Human", "description": "FIG. 2 is a representative phase contrast photomicrographs of mammospheres formed after 11 days in the absence of any added compound (Control) or in the presence of a defined amount of salinomycine, AM5, AM9 or AM13. […] The size of the mammospheres is correlated with progenitor cell proliferation, whereas the number of mammospheres formed after serial passages at clonal density is correlated with the self-renewal capacity of primitive Cancer Stem Cells. […]\nFIG. 9 represents images of the third generation of mammospheres formed from individual HMLER CD24low cells treated during 7 days with the indicated drug. The size of the mammospheres is correlated with progenitor cell proliferation capacity, whereas the number of mammospheres formed after serial passages at clonal density is correlated with the self-renewal capacity of primitive Cancer Stem Cells.\nAM5, AM9, AM13 and salinomycine were assessed for their capability to inhibit cell proliferation and formation of mammospheres. […]\nAM5 and AM23 and salinomycine were assessed for their capability to inhibit cell proliferation and formation of mammospheres."}, "[4]": {"tested_on": "MDA-MB-231 cells", "test": "Dead cells by DIOC6(3)/DAPI test with cathepsine B inhibitor", "assay_type": "cell-based, Human", "settings": "500 nM; COA74-Me 30 μM; 48 h, 96 h, 108 h", "method": "From the treatment, dead cells were assessed by DIOC6(3)/DAPI test and analyzed by flow cytometry."}, "[5]": {"tested_on": "HMLER CD24− cells", "test": "Cell viability assay (CellTiter-Blue), IC50 assessment", "assay_type": "cell-based, Human", "method": "as §1, §2"}, "[6]": {"tested_on": "SW620", "test": "Cell death IC50, Annexin V-FITC/PI flow cytometry", "assay_type": "cell-based", "settings": "Homo sapiens, SW-620, 108 h, read-out: IC50 SW620", "method": "(§3) The cells were seeded in a 6-well plate at density 5.105 cells/well and cultured overnight. The cells were then treated with various concentration (15, 30, 100, 500, 1000 and 10.000 nM) of salinomycine, AM5 and AM23 for 72 h, 96 h and 108 h. After treatment, cell death was quantified using Annexin V-FITC/Propidium Iodide (PI) assay according to the manufacturer's protocol (FITC Annexin V Apoptosis Detection Kit II, 556570, BD Pharmingen™) and analyzed by a LSRFortessa™ flow cytometer (BD Bioscience, San Jose, Calif.). The data were processed using Cell Quest software (BD Biosciences). Dose-response cell death curves were determined for indicated time.\n(§4) For tumor cells, the cells are classified in function of their sensitivity of drugs. Here, the most sensitive cells are incubated for 72 h, the middle sensitive cells for 96 h and the less sensitive or resistant cells are incubated for 108 h with drug at several concentrations.\n(§5) Concentrations of 30 nM, 500 nm and 1 μM were used for determining the IC50 of drugs.\n(§6) Intervals][…]] mean that IC50 is included in this interval with exclusion of the valor 30 nM.\n(§7) The SW620 and SW480 cell lines are from colon tumors."}, "[7]": {"tested_on": "SW480", "test": "Cell death IC50, Annexin V-FITC/PI flow cytometry", "assay_type": "cell-based", "settings": "Homo sapiens, SW480, 108 h, read-out: IC50 SW480", "method": "as §3, §4, §5, §6, §7"}, "[8]": {"tested_on": "Zr75.1", "test": "Cell death IC50, Annexin V-FITC/PI flow cytometry", "assay_type": "cell-based", "settings": "Homo sapiens, ZR-75-1, 72 h, read-out: IC50 Zr75.1", "method": "as §3, §4, §5, §6"}, "[9]": {"tested_on": "BT549", "test": "Cell death IC50, Annexin V-FITC/PI flow cytometry", "assay_type": "cell-based", "settings": "Homo sapiens, BT-549, 108 h, read-out: IC50 BT549", "method": "as §3, §4, §5, §6"}, "[10]": {"tested_on": "HMLER CD24low", "test": "Cell death IC50, Annexin V-FITC/PI flow cytometry", "assay_type": "cell-based", "settings": "Homo sapiens, 72 h, read-out: IC50 HMLER CD24low", "method": "as §3, §4, §5, §6"}, "[11]": {"tested_on": "T47D", "test": "Cell death IC50, Annexin V-FITC/PI flow cytometry", "assay_type": "cell-based", "settings": "Homo sapiens, Resistant (108 h)", "method": "as §3, §4, §5, §6"}, "[12]": {"tested_on": "MCF-7", "test": "Cell death IC50, Annexin V-FITC/PI flow cytometry", "assay_type": "cell-based", "settings": "Homo sapiens, MCF7, 72 h, read-out: IC50 MCF-7", "method": "as §3, §4, §5, §6"}, "[13]": {"tested_on": "HMLE W2", "test": "Cell death IC50, Annexin V-FITC/PI flow cytometry", "assay_type": "cell-based", "settings": "Homo sapiens, read-out: IC50 HMLE W2", "method": "as §3, §4, §5, §6"}, "[14]": {"tested_on": "MDA-MB-134", "test": "Cell death IC50, Annexin V-FITC/PI flow cytometry", "assay_type": "cell-based", "settings": "Homo sapiens, 96 h, read-out: IC50 MDA-MB-134", "method": "as §3, §4, §5, §6"}, "[15]": {"tested_on": "HMLER ID2", "test": "Cell death IC50, Annexin V-FITC/PI flow cytometry", "assay_type": "cell-based", "settings": "Homo sapiens, 72 h, read-out: IC50 HMLER ID2", "method": "as §3, §4, §5, §6"}, "[16]": {"tested_on": "BT20", "test": "Cell death IC50, Annexin V-FITC/PI flow cytometry", "assay_type": "cell-based", "settings": "Homo sapiens, BT-20, 108 h, read-out: IC50 BT20", "method": "as §3, §4, §5, §6"}, "[17]": {"tested_on": "HMLER GFP", "test": "Cell death IC50, Annexin V-FITC/PI flow cytometry", "assay_type": "cell-based", "settings": "Homo sapiens; 1rst sensibility (72 h)", "method": "as §3, §4, §5, §6"}, "[18]": {"tested_on": "HBL100", "test": "Cell death IC50, Annexin V-FITC/PI flow cytometry", "assay_type": "cell-based", "settings": "Homo sapiens, HBL-100, read-out: IC50 HBL100", "method": "as §3, §4, §5, §6"}, "[19]": {"tested_on": "MDA-MD-157", "test": "Cell death IC50, Annexin V-FITC/PI flow cytometry", "assay_type": "cell-based", "settings": "Homo sapiens, 96 h, read-out: IC50 MDA-MD-157", "method": "as §3, §4, §5, §6"}, "[20]": {"tested_on": "BT474", "test": "Cell death IC50, Annexin V-FITC/PI flow cytometry", "assay_type": "cell-based", "settings": "Homo sapiens, BT-474, 96 h, read-out: IC50 BT474", "method": "as §3, §4, §5, §6"}, "[21]": {"tested_on": "MDA-MB-361", "test": "Cell death IC50, Annexin V-FITC/PI flow cytometry", "assay_type": "cell-based", "settings": "Homo sapiens, MDA-MB-361, 96 h, read-out: IC50 MDA-MB-361", "method": "as §3, §4, §5, §6"}, "[22]": {"tested_on": "HMLER shECAD", "test": "Cell death IC50, Annexin V-FITC/PI flow cytometry", "assay_type": "cell-based", "settings": "Homo sapiens, 72 h, read-out: IC50 HMLER shECAD", "method": "as §3, §4, §5, §6"}, "[23]": {"tested_on": "MDA-MB-231", "test": "Cell death IC50, Annexin V-FITC/PI flow cytometry", "assay_type": "cell-based", "settings": "Homo sapiens, MDA-MB-231, 96 h, read-out: IC50 MDA-MB-231", "method": "as §3, §4, §5, §6"}, "[24]": {"settings": "third generation of mammospheres, HMLER CD24low cells treated 7 days"}}, "data": [{"molecule": "CCC(C(=O)O)[C@H]1CC[C@H](C)C([C@@H](C)[C@H](O)[C@H](C)C(=O)[C@H](CC)[C@H]2O[C@]3(C=C[C@@H](NC4CC4)[C@]4(CC[C@@](C)([C@H]5CC[C@](O)(CC)[C@H](C)O5)O4)O3)[C@H](C)C[C@@H]2C)O1", "note": "(some centres unmarked) [AM23, Sal-cyclopropylamine]", "values": [{"measurement": "IC50", "setting": "[1]", "value": 1.2, "unit": "µM"}, {"measurement": "ROS induction", "setting": "[2]", "value": "induces ROS"}, {"measurement": "inhibition of cell proliferation, efficacy in comparison with salinomycine", "setting": "[3]; at 30 nM", "value": "ten-fold improved efficacy"}, {"measurement": "number of mammospheres", "setting": "[3]; [24]", "value": "reduced the number of mammospheres"}, {"measurement": "size of mammospheres", "setting": "[3]; [24]", "value": "reduced by the highest dose"}, {"measurement": "death of MDA-MB-231 cells in combination with cathepsine B inhibition", "setting": "[4]", "value": "combine themselves to induce the death"}, {"measurement": "IC50", "setting": "[5]; Homo sapiens, read-out: IC50 CD24−", "value": 0.043, "unit": "µM"}, {"measurement": "activity against CD24 cells compared with salinomycine", "setting": "[5]; comparison of the IC50 results", "value": "significantly improved activity"}, {"measurement": "IC50", "setting": "[6]", "value": "0.03 to 0.5", "unit": "µM"}, {"measurement": "IC50", "setting": "[7]", "value": "0.03 to 0.5", "unit": "µM"}, {"measurement": "IC50", "setting": "[8]", "value": "0.03 to 0.5", "unit": "µM"}, {"measurement": "IC50", "setting": "[9]", "value": "> 1", "unit": "µM"}, {"measurement": "IC50", "setting": "[10]", "value": "< 0.03", "unit": "µM"}, {"measurement": "IC50", "setting": "[11]", "value": "> 1", "unit": "µM"}, {"measurement": "IC50", "setting": "[12]", "value": "0.03 to 0.5", "unit": "µM"}, {"measurement": "IC50", "setting": "[13]", "value": 1, "unit": "µM"}, {"measurement": "IC50", "setting": "[14]", "value": "> 1", "unit": "µM"}, {"measurement": "IC50", "setting": "[15]", "value": "< 0.03", "unit": "µM"}, {"measurement": "IC50", "setting": "[16]", "value": "0.03 to 0.5", "unit": "µM"}, {"measurement": "IC50", "setting": "[17]", "value": 0.03, "unit": "µM"}, {"measurement": "IC50", "setting": "[18]", "value": "> 1", "unit": "µM"}, {"measurement": "IC50", "setting": "[19]", "value": "0.03 to 0.5", "unit": "µM"}, {"measurement": "IC50", "setting": "[20]", "value": "> 1", "unit": "µM"}, {"measurement": "IC50", "setting": "[21]", "value": 1, "unit": "µM"}, {"measurement": "IC50", "setting": "[22]", "value": 0.03, "unit": "µM"}, {"measurement": "IC50", "setting": "[23]", "value": "> 1", "unit": "µM"}]}]}
